Biological target: T1, EGFR (Homo sapiens, UniProt P00533)
T1 construct: A549 cells were chosen due to their elevated expression of EGFR; endogenous in cells; host or cells: A549
Assay: Western blot of EGF-induced EGFR phosphorylation in A549 cells
Format: cell-based
Experimental: A549 cells were chosen due to their elevated expression of EGFR.
A549 cells were seeded into a 6-well plate at a concentration of 1×10^5 cells/well. After 12 h attachment at 37° C. and 5% CO2, the cells were starved overnight in serum-reduced DMEM followed by treatment with different concentration of M-2-2 for 4 h. […] Subsequently, the cells were incubated on ice for 10 min and centrifuged at 14,000×g at 4° C. for 10 min. […] The experiments were conducted in triplicates and repeated for three times.

T1 sequence (P00533 25-1210): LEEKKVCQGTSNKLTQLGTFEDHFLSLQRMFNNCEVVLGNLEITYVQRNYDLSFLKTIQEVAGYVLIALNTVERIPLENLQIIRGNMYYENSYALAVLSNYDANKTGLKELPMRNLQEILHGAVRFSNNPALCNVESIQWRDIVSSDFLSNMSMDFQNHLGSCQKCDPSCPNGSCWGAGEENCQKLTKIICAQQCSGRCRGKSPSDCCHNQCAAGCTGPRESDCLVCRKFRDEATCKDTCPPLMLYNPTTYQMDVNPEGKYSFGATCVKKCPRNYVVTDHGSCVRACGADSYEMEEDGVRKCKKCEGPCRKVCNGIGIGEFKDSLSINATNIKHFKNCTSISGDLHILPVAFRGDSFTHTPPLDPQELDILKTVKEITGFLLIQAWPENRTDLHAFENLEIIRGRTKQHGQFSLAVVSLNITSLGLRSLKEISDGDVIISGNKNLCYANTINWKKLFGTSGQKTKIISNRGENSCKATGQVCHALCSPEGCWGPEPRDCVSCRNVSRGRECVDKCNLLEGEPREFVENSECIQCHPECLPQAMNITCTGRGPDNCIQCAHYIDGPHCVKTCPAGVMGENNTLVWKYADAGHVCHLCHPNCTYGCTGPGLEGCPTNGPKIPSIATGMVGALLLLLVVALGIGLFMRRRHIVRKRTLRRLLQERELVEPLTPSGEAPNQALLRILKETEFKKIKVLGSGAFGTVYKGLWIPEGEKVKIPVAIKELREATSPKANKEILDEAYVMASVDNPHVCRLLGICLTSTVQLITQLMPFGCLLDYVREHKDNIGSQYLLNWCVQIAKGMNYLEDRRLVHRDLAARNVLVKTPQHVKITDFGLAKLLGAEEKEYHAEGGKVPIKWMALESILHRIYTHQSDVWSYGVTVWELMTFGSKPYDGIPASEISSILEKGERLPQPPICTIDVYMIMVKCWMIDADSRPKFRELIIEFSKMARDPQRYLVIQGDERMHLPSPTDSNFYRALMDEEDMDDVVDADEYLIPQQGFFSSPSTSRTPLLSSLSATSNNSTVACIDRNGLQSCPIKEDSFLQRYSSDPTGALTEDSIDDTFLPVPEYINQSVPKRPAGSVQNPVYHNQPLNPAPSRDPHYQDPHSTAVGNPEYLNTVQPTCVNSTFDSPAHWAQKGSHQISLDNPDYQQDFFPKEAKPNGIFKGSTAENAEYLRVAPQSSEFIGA

CC[C@H]1CN(C(=O)CCC2CCCCC2)CC(=O)N[C@@H](CC)CN(C(=O)Cc2ccc3c(c2)OCO3)CC(=O)N[C@@H](CC(C)C)CN(CC(N)=O)C(=O)CCSCc2ccc(cc2)C(=O)N[C@@H](CC(C)C)CN(C(=O)Cc2ccc3c(c2)OCO3)CC(=O)N1 [M-2-2]
effect on phosphorylation level of EGFR (P-EGFR) in the presence of EGF (starved A549 cells, 20 μM, 4 h pretreatment, then 100 ng/mL EGF, western blot, P-EGFR/GAPDH): enhance the activation of EGFR | effect on downstream signal transduction of EGF stimulated EGFR (western blot with anti-phosphorylated AKT and ERK, concentration not given): enhance

— US20230008571A1, “CYCLIC COMPOUNDS FOR TREATING CARDIOVASCULAR DISORDERS AND WOUNDS” (University of South Florida, priority 2021, published 2023)
